The supplement of paper PMC10307832

Key:
Venetoclax + Foretinib = compound: CC1(C)CCC(CN2CCN(c3ccc(C(=O)NS(=O)(=O)c4ccc(NCC5CCOCC5)c([N+](=O)[O-])c4)c(Oc4cnc5[nH]ccc5c4)c3)CC2)=C(c2ccc(Cl)cc2)C1 [Venetoclax] + COc1cc2c(Oc3ccc(NC(=O)C4(C(=O)Nc5ccc(F)cc5)CC4)cc3F)ccnc2cc1OCCCN1CCOCC1 [Foretinib] (partner 0.25 µM); experiment: relative viability (nuclei count vs DMSO), 5 days (fraction); higher = more cells survive
In short: (§1)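 Relative viability was taken as the ratio of nuclei in treated wells to nuclei in vehicle wells. Lung cancer cell lines in 1536-well plates received compounds by pin tool one day after seeding, either one drug alone or a fixed anchor-drug dose plus five library-drug doses (not always all listed) in √10 steps. Nuclei were counted on 4× images after 5 days of treatment, and values are medians of duplicate plates.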

Selumetinib + Tozasertib = compound: Cn1cnc2c(F)c(Nc3ccc(Br)cc3Cl)c(C(=O)NOCCO)cc21 [Selumetinib] + Cc1cc(Nc2cc(N3CCN(C)CC3)nc(Sc3ccc(NC(=O)C4CC4)cc3)n2)n[nH]1 [Tozasertib] (partner 0.1 µM); experiment: as above
In short: as §1

Cell Line	relative viability (Venetoclax + Foretinib; first compound 0.01 µM)	relative viability (Venetoclax + Foretinib; first compound 0.03162 µM)	relative viability (Venetoclax + Foretinib; first compound 0.1 µM)	relative viability (Venetoclax + Foretinib; first compound 0.3162 µM)	relative viability (Venetoclax + Foretinib; first compound 1 µM)	relative viability (Selumetinib + Tozasertib; first compound 0.02 µM)	relative viability (Selumetinib + Tozasertib; first compound 0.06325 µM)	relative viability (Selumetinib + Tozasertib; first compound 0.2 µM)	relative viability (Selumetinib + Tozasertib; first compound 0.6325 µM)
NCI-H2009	1.22	1.25	1.1	1.19	1.13	0.606	0.502	0.499	0.384
CAL-12T	1.17	1.14	1.13	1.18	1.05	0.34	0.364	0.301	0.229
NCI-H1623	0.897	0.906	0.893	0.836	0.858	0.343	0.342	0.351	0.361
HCC-78	0.518	0.54	0.525	0.484	0.576	0.703	0.44	0.436	0.408
EKVX	0.657	1.24	0.332	0.795	0.788	0.36	0.345	0.378	0.336
NCI-H1703	0.345		0.397	0.328	0.367				
NCI-H1944	1.06	0.904	0.847	0.911	0.912	0.238	0.228	0.233	0.203
NCI-H1755	0.905	0.893	0.951	0.882	0.899	0.597	0.552	0.563	0.558
Calu-6	0.907	0.861	0.992	0.846	0.878				
EBC-1	0.115	0.0897	0.09	0.0924	0.0981				
EPLC-272H	0.678	0.849	0.597	0.725	0.74	0.185	0.181	0.34	0.283
A-427	0.957	1.2	0.944	1.24	1.11	0.205	0.193	0.168	0.17
NCI-H3122	0.954	0.996	0.924	0.942	0.96	0.397	0.351	0.305	0.268
NCI-H1563	0.922	0.968	0.961	1.05	0.94				
NCI-H358	0.69	0.66	0.694	0.695	0.638	0.128	0.0891	0.0985	0.0883
SK-LU-1	0.776	0.853	0.767	0.816	0.775	0.301	0.306	0.29	0.252
NCI-H2347	1.05	1.39	0.85	0.883	0.854	0.505	0.489	0.35	0.228
IA-LM	1.02	1.17	1.13	1.14	0.977				
HCC-15	0.998	1.02	0.96	0.931	0.825	0.372	0.209	0.268	0.158
PC-3 [JPC-3]	0.939	1.07	1.14	0.987	0.994	0.991	0.813	0.769	0.655
NCI-H1915	1.08	1.01	1.06	1.01	1.01	0.428	0.568	0.319	0.303
HCC-827	0.966	1.03	0.971	0.98	0.916	0.42	0.393	0.408	0.361
LC-2-ad	1.04	0.95	0.938	0.947	0.904	0.517	0.391	0.393	0.386
NCI-H460	0.978	0.941	0.791	0.997	0.951	0.379	0.283	0.246	0.152
NCI-H441	0.903	0.962	0.966	0.97	0.686	0.587	0.656	0.636	0.583

Cell Line	relative viability (Venetoclax + Foretinib; first compound 0.01 µM)	relative viability (Venetoclax + Foretinib; first compound 0.03162 µM)	relative viability (Venetoclax + Foretinib; first compound 0.1 µM)	relative viability (Venetoclax + Foretinib; first compound 0.3162 µM)	relative viability (Venetoclax + Foretinib; first compound 1 µM)	relative viability (Selumetinib + Tozasertib; first compound 0.02 µM)	relative viability (Selumetinib + Tozasertib; first compound 0.06325 µM)	relative viability (Selumetinib + Tozasertib; first compound 0.2 µM)	relative viability (Selumetinib + Tozasertib; first compound 0.6325 µM)
LCLC-97TM1	0.913	1.03	0.918	0.981	0.782	0.201	0.255	0.216	0.223
COR-L23	0.884	1.03	1.04	0.866	0.883	0.211	0.187	0.171	0.163
NCI-H2228	0.788	0.906	0.851	1	0.776	0.247	0.255	0.211	0.204
LCLC-103H	0.758	0.782	0.698	0.767	0.801	0.514	0.458	0.435	0.349
NCI-H1993	0.786	0.859	0.863	0.783	0.686	0.492	0.557	0.575	0.601
NCI-H1793	0.769	0.71	0.619	0.79	0.607	0.314	0.269	0.235	0.221
NCI-H2087	0.911	1.18	1.13	0.955	0.893	0.194	0.211	0.166	0.147
COR-L 105	0.752	0.78	1.15	1	0.991	0.364	0.316	0.309	0.322
SW 1573	0.943	0.974	0.811	0.781	0.828	0.15	0.145	0.174	0.153
NCI-H1355	0.967	1.05	1.05	1.02	0.978	0.536	0.567	0.445	0.414
RERF-LC-KJ	0.793	0.94	0.871	0.927	0.784	0.541	0.489	0.465	0.44
NCI-H727	1.16	0.719	0.834	1.08	0.884	0.403	0.357	0.338	0.294
NCI-H1734	0.88	0.871	0.794	0.823	0.878	0.244	0.251	0.234	0.227
NCI-H2126	1.17	1.21	0.784	1.09	1.06	0.784	0.741	0.728	0.638
NCI-H23	0.949	0.945	1.01	1.07	0.993	0.36	0.301	0.224	0.31
EMC-BAC-2	0.994	1.03	1.12	0.986	0.978	0.383	0.361	0.349	0.387
NCI-H2023	0.813	0.924	1.14	0.84	0.653	0.362	0.317	0.267	0.253
NCI-H647	1.08	1.26	1.13	1.18	1.11	0.409	0.168	0.319	0.358
NCI-H661	0.978	1.01	1.02	0.996	0.888	0.381	0.366	0.386	0.374
NCI-H1975	0.936	1.02	0.89	0.942	0.929	0.753	0.703	0.684	0.591
ChaGo-K-1	1.02	0.944	0.889	0.916	0.949	0.212	0.237	0.222	0.204
NCI-H522						0.567	0.515	0.537	0.505
NCI-H1437	1.28	1.24	1.25	1.26	1.15	0.319	0.359	0.274	0.2
NCI-H1666	0.889	0.946	0.904	0.915	0.943	0.589	0.489	0.528	0.554
NCI-H2085	1.01	1.03	0.905	0.919	0.884	0.737	0.592	0.552	0.593

Cell Line	relative viability (Venetoclax + Foretinib; first compound 0.01 µM)	relative viability (Venetoclax + Foretinib; first compound 0.03162 µM)	relative viability (Venetoclax + Foretinib; first compound 0.1 µM)	relative viability (Venetoclax + Foretinib; first compound 0.3162 µM)	relative viability (Venetoclax + Foretinib; first compound 1 µM)	relative viability (Selumetinib + Tozasertib; first compound 0.02 µM)	relative viability (Selumetinib + Tozasertib; first compound 0.06325 µM)	relative viability (Selumetinib + Tozasertib; first compound 0.2 µM)	relative viability (Selumetinib + Tozasertib; first compound 0.6325 µM)
LXF-289	1.05	0.975	0.991	0.941	0.913	0.219	0.229	0.191	0.159
NCI-H322M	0.939	1	0.915	0.972	1.05	0.391	0.418	0.369	0.366
NCI-H1648						0.54	0.488	0.487	0.456
LU99A	0.821	0.854	0.78	0.747	0.825	0.274	0.278	0.266	0.276
NCI-H650	0.98	0.964	1.06	0.996	1.01	0.85	0.692	0.864	0.533
PC-14	0.945	0.968	0.939	0.966	0.822	0.529	0.486	0.532	0.434
HARA	0.916	0.947	0.925	0.891	0.886	0.108	0.115	0.111	0.102
SK-MES-1	0.895	0.988	0.951	0.991	0.899	1.08	0.894	0.949	0.676
NCI-H1650	1.12	1.11	1.13	1.2	1.07	0.332	0.394	0.312	0.308
NCI-H2342	1	1.23	1.03	1.01	1.13	0.461	0.546	0.473	0.576
NCI-H1299	1.07	1.11	1.1	1.07	1.03				
SW 900	0.745	1.05	0.823	0.916	1.16	0.609	0.517	0.564	0.478
HOP-62	1.07	1.16	0.997	1.08	1.03	0.377	0.317	0.376	0.328
LK-2	1.15	1.34	1.27	1.18	0.891	0.17	0.189	0.221	0.144
HCC-44						1.12	0.93	0.747	0.701
BEN	0.728	0.743	0.561	0.681	0.518	0.545	0.442	0.489	0.564
NCI-H2405	1.03	1.08	1.01	0.999	1.04	0.734	0.673	0.692	0.478
NCI-H1395	1.06	1.01	1.04	1.07	0.996	0.714	0.702	0.718	0.748
A549	0.896	0.871	0.989	0.912	0.883				
201T	1.2	1.04	0.976	0.98	1.06	0.908	0.928	0.88	0.874
NCI-H2170	0.971	1.01	0.939	0.995	1	0.746	0.848	0.661	0.657
NCI-H596	0.77	0.877	1	0.956	0.743	0.883	0.899	0.668	0.648
NCI-H838	1.05	1.04	1.06	1.05	0.961	0.261	0.226	0.229	0.245
HCC-366	0.86	1.04	0.872	0.963	0.974	0.127	0.109	0.104	0.0897
NCI-H1651	0.876	0.787	0.834	0.823	0.808	0.644	0.643	0.591	0.537
